Measured values as given in ChEMBL document CHEMBL1201862, “PubChem BioAssay data set” (2004).
Each block holds one molecule with its values, some of them ahead of it. The source made the active and inactive calls.

Experiments:
SUMO E1/E2 = SUMO E1/E2 (Homo sapiens, UniProt P63279+Q9UBE0+Q9UBT2); experiment: SAR analysis of SUMOylation using HTRF in an in-Vitro dose response assay. [Related pubchem assays (depositor defined):AID2006, AID2011, AID2018, AID2069, AID2658]; assay type: functional
[1] = target: T1, Tyrosine-protein phosphatase non-receptor type 22 (Homo sapiens, UniProt Q9Y2R2); experiment: LYP (PTPN22) phosphatase inhibitor potency, SAR follow-up, biochemical, pCAP fluorogenic substrate, fluorescence, set 3 (AID 449727); assay type: functional
T1 sequence (Q9Y2R2 whole entry): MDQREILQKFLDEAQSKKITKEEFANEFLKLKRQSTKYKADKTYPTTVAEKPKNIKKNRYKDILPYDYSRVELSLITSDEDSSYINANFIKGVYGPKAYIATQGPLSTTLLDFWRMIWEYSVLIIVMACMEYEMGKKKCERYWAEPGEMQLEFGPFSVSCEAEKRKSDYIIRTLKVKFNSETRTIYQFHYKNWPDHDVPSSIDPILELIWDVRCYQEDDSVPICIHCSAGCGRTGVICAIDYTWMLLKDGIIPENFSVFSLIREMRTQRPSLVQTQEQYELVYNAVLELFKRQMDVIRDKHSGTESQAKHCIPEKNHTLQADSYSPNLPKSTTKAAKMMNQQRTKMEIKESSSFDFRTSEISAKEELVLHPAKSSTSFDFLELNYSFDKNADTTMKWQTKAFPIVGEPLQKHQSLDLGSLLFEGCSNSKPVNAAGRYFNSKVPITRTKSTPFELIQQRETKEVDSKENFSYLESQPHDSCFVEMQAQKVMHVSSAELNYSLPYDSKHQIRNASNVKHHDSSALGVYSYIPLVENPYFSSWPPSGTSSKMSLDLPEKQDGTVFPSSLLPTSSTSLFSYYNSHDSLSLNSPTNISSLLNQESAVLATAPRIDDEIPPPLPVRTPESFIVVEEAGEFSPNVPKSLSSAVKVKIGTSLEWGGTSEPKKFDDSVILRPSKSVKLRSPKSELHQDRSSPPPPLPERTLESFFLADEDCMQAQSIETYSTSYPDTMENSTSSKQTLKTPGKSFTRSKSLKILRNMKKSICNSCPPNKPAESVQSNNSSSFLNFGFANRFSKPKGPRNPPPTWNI

[2] = target: T1, Tyrosine-protein phosphatase non-receptor type 22; experiment: SAR LYP1 Fluorescent Assay using OMFP substrate for In Vitro dose response studies - Set 3. [Related pubchem assays (depositor defined):AID1779, AID1784, AID2140, AID2686]; assay type: functional
[3] = target: G-protein coupled receptor 35 (Homo sapiens, UniProt Q9HC97); experiment: SAR Analysis for the identification of Selective Antagonists of ERK1/2 Activity in GPR35-Overexpressing U2OS Cells. [Related pubchem assays: 2079, 2058 ]; assay type: functional, cell-based
G-protein coupled receptor 35, sequence (Q9HC97 whole entry): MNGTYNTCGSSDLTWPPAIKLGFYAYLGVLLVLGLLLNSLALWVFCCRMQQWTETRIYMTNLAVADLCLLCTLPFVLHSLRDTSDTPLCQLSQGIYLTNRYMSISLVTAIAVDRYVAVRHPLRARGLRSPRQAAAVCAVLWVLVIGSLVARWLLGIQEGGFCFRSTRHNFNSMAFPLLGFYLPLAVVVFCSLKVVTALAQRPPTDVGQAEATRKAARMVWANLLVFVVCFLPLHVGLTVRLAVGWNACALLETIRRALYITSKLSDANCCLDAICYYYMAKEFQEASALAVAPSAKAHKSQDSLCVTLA

Streptococcus = experiment: Group A Streptococcus viability loss, dose response, counter-screen for streptokinase expression inhibitor project, luminescence, BacTiterGlo (AID 1915); assay type: functional, organism-based;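 further: potency for reduction of bacterial viability or growth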
Cysteine protease ATG4B = target: T2, Cysteine protease ATG4B (Homo sapiens, UniProt Q9Y4P1); assay type: functional;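 further: Fluorescence-based dose-response confirmation assay measuring inhibition of ATG4B activity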
T2 sequence (Q9Y4P1 whole entry): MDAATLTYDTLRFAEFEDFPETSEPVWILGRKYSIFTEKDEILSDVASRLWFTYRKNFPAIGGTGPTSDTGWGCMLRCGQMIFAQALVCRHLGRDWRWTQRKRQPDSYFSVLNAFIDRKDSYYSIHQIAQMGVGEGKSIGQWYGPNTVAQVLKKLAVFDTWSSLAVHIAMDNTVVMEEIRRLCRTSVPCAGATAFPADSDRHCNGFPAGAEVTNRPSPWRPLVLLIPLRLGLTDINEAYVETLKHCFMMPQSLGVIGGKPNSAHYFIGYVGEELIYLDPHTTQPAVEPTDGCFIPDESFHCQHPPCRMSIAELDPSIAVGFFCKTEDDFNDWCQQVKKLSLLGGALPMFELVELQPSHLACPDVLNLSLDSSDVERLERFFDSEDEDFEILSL

[4] = target: Tyrosine-protein phosphatase non-receptor type 12 (Homo sapiens, UniProt Q05209); experiment: SAR Selectivity Analysis of small molecule inhibitors of PEST using pCAP in a fluorescence assay. [Related pubchem assays (depositor defined):AID1779, AID1784, AID2135]; assay type: functional
Tyrosine-protein phosphatase non-receptor type 12, sequence (Q05209 whole entry, the tested form may be a part): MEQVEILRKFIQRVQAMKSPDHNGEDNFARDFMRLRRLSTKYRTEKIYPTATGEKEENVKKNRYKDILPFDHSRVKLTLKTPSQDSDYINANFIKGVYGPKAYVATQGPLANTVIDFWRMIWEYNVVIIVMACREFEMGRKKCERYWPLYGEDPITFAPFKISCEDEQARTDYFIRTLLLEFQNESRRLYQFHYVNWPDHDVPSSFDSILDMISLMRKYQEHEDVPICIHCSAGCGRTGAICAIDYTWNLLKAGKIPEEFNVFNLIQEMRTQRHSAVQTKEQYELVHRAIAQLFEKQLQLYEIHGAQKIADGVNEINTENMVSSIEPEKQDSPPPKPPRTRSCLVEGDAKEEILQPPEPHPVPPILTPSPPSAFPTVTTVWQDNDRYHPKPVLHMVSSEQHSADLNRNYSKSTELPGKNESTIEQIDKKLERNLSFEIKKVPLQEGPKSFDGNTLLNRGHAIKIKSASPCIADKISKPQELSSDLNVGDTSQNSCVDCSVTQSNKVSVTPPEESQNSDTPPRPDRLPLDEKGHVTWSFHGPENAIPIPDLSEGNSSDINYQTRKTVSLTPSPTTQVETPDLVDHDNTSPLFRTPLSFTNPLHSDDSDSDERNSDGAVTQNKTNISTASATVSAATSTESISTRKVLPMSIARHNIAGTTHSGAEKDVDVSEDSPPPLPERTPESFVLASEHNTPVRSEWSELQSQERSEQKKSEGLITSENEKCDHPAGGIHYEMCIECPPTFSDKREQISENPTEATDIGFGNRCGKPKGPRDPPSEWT

[5] = HIV-1 Env-mediated cell fusion inhibitors, dose response, CCR5-tropic Env (AID 2279); assay type: functional
[6] = target: Tyrosine-protein phosphatase non-receptor type 7 (Homo sapiens, UniProt P35236); experiment: HePTP (PTPN7) phosphatase inhibitor potency, SAR follow-up, biochemical, set 2 (AID 449736); assay type: functional
Tyrosine-protein phosphatase non-receptor type 7, sequence (P35236 whole entry): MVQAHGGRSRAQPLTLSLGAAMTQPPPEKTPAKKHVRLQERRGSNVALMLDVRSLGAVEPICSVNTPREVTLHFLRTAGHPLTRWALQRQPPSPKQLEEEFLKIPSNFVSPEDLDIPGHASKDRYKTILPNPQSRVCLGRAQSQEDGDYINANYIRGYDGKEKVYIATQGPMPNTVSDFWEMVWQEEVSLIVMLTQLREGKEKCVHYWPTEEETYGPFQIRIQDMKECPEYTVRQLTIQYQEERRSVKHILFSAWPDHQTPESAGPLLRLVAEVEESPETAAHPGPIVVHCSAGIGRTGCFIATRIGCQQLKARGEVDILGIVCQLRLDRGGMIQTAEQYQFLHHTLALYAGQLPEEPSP

[7] = test system: Streptococcus sp. 'group A'; experiment: growth inhibition of control SK(-) GAS strain, dose response, counter-screen for streptokinase expression inhibitor project, luminescence, kanamycin, BacTiterGlo, confirmation (AID 1900); assay type: functional, organism-based
Phospholipase A2 = Phospholipase A2 (Homo sapiens, UniProt P04054); assay type: functional;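 further: confirmatory dose-response counterscreen on phospholipase A2, testing hits that came from an ultra-high-throughput screen for ATG4B inhibitors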
Phospholipase A2, sequence (P04054 whole entry): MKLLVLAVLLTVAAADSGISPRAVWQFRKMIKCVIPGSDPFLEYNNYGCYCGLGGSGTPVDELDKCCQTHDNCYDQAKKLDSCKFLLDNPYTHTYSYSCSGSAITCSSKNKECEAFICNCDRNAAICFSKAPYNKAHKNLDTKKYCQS

[8] = target: G-protein coupled receptor 55 (Homo sapiens, UniProt Q9Y2T6); experiment: GPR55 antagonists, SAR follow-up, counter-screen for GPR35 antagonist project, imaging, image-based (AID 2397); assay type: functional
G-protein coupled receptor 55, sequence (Q9Y2T6 whole entry): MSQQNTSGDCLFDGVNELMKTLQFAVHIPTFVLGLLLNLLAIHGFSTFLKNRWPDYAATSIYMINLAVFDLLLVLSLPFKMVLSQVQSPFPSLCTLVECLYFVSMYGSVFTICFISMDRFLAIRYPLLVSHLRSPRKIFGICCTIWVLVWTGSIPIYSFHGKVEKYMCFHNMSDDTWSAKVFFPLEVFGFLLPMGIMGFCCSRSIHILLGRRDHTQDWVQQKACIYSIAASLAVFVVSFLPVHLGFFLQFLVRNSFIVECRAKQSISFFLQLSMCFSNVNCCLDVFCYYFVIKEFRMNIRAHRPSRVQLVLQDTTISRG

SUMO E1/E2, sequence (Q9UBE0 whole entry): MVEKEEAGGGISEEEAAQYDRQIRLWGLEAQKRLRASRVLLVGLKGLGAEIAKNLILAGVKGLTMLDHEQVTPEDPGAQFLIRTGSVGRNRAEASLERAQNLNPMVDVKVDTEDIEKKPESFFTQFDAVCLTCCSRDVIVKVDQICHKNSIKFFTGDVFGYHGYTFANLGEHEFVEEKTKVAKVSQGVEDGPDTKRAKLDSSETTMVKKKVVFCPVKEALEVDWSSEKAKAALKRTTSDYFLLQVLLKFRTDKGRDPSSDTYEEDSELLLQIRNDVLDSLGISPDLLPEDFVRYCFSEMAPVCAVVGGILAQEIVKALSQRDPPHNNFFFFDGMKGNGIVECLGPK
SUMO E1/E2, sequence (Q9UBT2 whole entry): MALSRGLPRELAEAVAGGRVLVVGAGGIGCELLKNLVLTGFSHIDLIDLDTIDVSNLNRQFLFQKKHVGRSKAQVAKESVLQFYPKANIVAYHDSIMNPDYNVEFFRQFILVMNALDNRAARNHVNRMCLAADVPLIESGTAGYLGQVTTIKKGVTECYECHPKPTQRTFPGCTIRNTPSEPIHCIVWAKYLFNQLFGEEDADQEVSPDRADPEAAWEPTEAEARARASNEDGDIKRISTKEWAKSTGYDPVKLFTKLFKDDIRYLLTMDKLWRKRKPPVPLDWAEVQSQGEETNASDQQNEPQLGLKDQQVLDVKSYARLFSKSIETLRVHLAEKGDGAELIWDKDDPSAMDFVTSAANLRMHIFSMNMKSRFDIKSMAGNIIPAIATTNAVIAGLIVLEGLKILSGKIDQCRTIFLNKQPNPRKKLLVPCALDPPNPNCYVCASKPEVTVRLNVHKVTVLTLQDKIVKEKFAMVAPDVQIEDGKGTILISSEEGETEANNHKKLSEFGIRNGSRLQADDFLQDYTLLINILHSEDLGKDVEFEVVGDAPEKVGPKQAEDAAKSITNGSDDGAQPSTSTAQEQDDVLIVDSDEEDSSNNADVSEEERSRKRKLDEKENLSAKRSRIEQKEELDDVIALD
SUMO E1/E2, sequence (P63279 whole entry): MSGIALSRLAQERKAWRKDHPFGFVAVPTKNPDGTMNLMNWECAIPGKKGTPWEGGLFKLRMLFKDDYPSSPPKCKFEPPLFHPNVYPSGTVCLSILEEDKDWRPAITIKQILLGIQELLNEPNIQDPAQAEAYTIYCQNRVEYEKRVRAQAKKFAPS

IC50 (SUMO E1/E2): 12.5 µM (active)
Structure (SMILES): S=c1[nH]nc(-c2cc(-c3ccccc3)[nH]n2)n1N=Cc1cccc(Cl)c1

Structure (SMILES): CC(/C=C1\SC(=S)N(CCCC(=O)Nc2ccc(C(=O)O)cc2)C1=O)=C\c1ccccc1
IC50 [1]: 47.1 µM (active) | IC50 [2]: 34.8 µM (active) | IC50 [3]: 1.59 µM (active) | EC50 (Streptococcus): 1.04 µM (active) | IC50 (Cysteine protease ATG4B): 6.85 µM (active) | IC50 [4]: 8.24 µM (active) | IC50 [5]: 38.9 µM (active) | IC50 [6]: 1.28 µM (active) | EC50 [7]: 0.274 µM (active) | IC50 (Phospholipase A2): 5.33 µM (active) | IC50 [8]: 17.9 µM (inactive)
